Results on 64 compounds are retold here after patent publication US20230123334A1, “AMINO LIPID COMPOUND, PREPARATION METHOD THEREFOR, AND APPLICATION THEREOF” (SHENZHEN SHENXIN BIOTECHNOLOGY CO., LTD., priority 2020, published 2023).

This test concerns HEK293 cells. The test can be described thus: Preliminary screening as mRNA vectors, EGFP mRNA transfection of HEK293 cells. The format is cell-based. The note with it: EGFP mRNA 50 ng per well, 96-well plates; percentage of GFP fluorescent cells relative to total number of cells (Hoechst). The method, boiled down: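 HEK293 cells in DMEM plus 10% FBS transfected in 96-well format with 50 ng EGFP mRNA per well; Lipofectamine2000 served as positive control. Read-out is the percentage of GFP-fluorescent cells among total cells, counted by Hoechst nuclear stain.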
For `CCCCCCCCCCCCNc1nc(NCCN(CC)CC)nc(SCCCCCCC)n1` [Compound D7S7N12], the “Absolute mRNA transfection efficiency in HEK293 cells” value (“Absolute mRNA transfection efficiency” below) turned out to be 3.6%.
Take `CCCCCCCCCCCCCNc1nc(NCCN(CC)CC)nc(SCCCCCCC)n1` [Compound D7S7N13]: the “Absolute mRNA transfection efficiency” value amounted to 1.2%.
Take `CCCCCCCCCCCCCCCNc1nc(NCCN(CC)CC)nc(SCCCCCCC)n1` [Compound D7S7N15]: the “Absolute mRNA transfection efficiency” value stood at 18.5%.
The same measure for `CCCCCCCCCCCCCCCCNc1nc(NCCN(CC)CC)nc(SCCCCCCC)n1` [Compound D7S7N16]: 12.8%; for `CCCCCCCCCCCCCCCCCCNc1nc(NCCN(CC)CC)nc(SCCCCCCC)n1` [Compound D7S7N18]: 16.7%; for `CCCCCCCSc1nc(NCCN(CC)CC)nc(SCCCCCCC)n1` [Compound D7S7S7]: 18.4%.
Consider `CCCCCCCCSc1nc(NCCN(CC)CC)nc(SCCCCCCC)n1` [Compound D7S7S8], for which the “Absolute mRNA transfection efficiency” value worked out at 42.1%.
`CCCCCCCCCSc1nc(NCCN(CC)CC)nc(SCCCCCCC)n1` [Compound D7S7S9]: the “Absolute mRNA transfection efficiency” value is 13.5%.
The same measure for `CCCCCCCCCCSc1nc(NCCN(CC)CC)nc(SCCCCCCC)n1` [Compound D7S7S10]: 1.7%; for `CCCCCCCCCCCSc1nc(NCCN(CC)CC)nc(SCCCCCCC)n1` [Compound D7S7S11]: 4.5%; for `CCCCCCCCCCCCSc1nc(NCCN(CC)CC)nc(SCCCCCCC)n1` [Compound D7S7S12]: 5.8%.
Next, `CCCCCCCCCCCCCCSc1nc(NCCN(CC)CC)nc(SCCCCCCC)n1` [Compound D7S7S14]: 4.1%.
The same measure for `CCCCCCCCCCCCCCCSc1nc(NCCN(CC)CC)nc(SCCCCCCC)n1` [Compound D7S7S15]: 5.4%.
As for `CCCCCCCCCCCCCCCCSc1nc(NCCN(CC)CC)nc(SCCCCCCC)n1` [Compound D7S7S16], the “Absolute mRNA transfection efficiency” value is 10.7%.
Next, `CCCCCCCCCCCCCCCCCCSc1nc(NCCN(CC)CC)nc(SCCCCCCC)n1` [Compound D7S7S18]: 7.1%; `CCCCCCCCSc1nc(NCCCCCC)nc(NCCN(CC)CC)n1` [Compound D7S8N6]: 0.8%; `CCCCCCCCSc1nc(NCCCCCCC)nc(NCCN(CC)CC)n1` [Compound D7S8N7]: 0.7%.
Next, `CCCCCCCCNc1nc(NCCN(CC)CC)nc(SCCCCCCCC)n1` [Compound D7S8N8]: 2.5%.
Take `CCCCCCCCCNc1nc(NCCN(CC)CC)nc(SCCCCCCCC)n1` [Compound D7S8N9]: the “Absolute mRNA transfection efficiency” value was 9.5%.
Next, `CCCCCCCCCCCNc1nc(NCCN(CC)CC)nc(SCCCCCCCC)n1` [Compound D7S8N11]: 9.0%; `CCCCCCCCCCCCNc1nc(NCCN(CC)CC)nc(SCCCCCCCC)n1` [Compound D7S8N12]: 9.5%.
The same measure for `CCCCCCCCCCCCCNc1nc(NCCN(CC)CC)nc(SCCCCCCCC)n1` [Compound D7S8N13]: 14.2%; for `CCCCCCCCCCCCCCCNc1nc(NCCN(CC)CC)nc(SCCCCCCCC)n1` [Compound D7S8N15]: 15.7%.
Regarding `CCCCCCCCCCCCCCCCNc1nc(NCCN(CC)CC)nc(SCCCCCCCC)n1` [Compound D7S8N16], the “Absolute mRNA transfection efficiency” value worked out at 16.8%.
As to `CCCCCCCCCCCCCCCCCCNc1nc(NCCN(CC)CC)nc(SCCCCCCCC)n1` [Compound D7S8N18], the “Absolute mRNA transfection efficiency” value came out at 12.8%.
For `CCCCCCCCSc1nc(NCCN(CC)CC)nc(SCCCCCCCC)n1` [Compound D7S8S8], the “Absolute mRNA transfection efficiency” value is on record as 25.3%.
`CCCCCCCCCSc1nc(NCCN(CC)CC)nc(SCCCCCCCC)n1` [Compound D7S8S9]: the “Absolute mRNA transfection efficiency” value is 11.1%.
Next, `CCCCCCCCCCSc1nc(NCCN(CC)CC)nc(SCCCCCCCC)n1` [Compound D7S8S10]: 7.6%; `CCCCCCCCCCCSc1nc(NCCN(CC)CC)nc(SCCCCCCCC)n1` [Compound D7S8S11]: 3.2%.
As to `CCCCCCCCCCCCSc1nc(NCCN(CC)CC)nc(SCCCCCCCC)n1` [Compound D7S8S12], the “Absolute mRNA transfection efficiency” value was 1.3%.
The same measure for `CCCCCCCCCSc1nc(NCCCCCC)nc(NCCN(CC)CC)n1` [Compound D7S9N6]: 0.6%; for `CCCCCCCCCSc1nc(NCCCCCCC)nc(NCCN(CC)CC)n1` [Compound D7S9N7]: 1.6%; for `CCCCCCCCCSc1nc(NCCCCCCCC)nc(NCCN(CC)CC)n1` [Compound D7S9N8]: 11.1%.
With `CCCCCCCCCNc1nc(NCCN(CC)CC)nc(SCCCCCCCCC)n1` [Compound D7S9N9], the “Absolute mRNA transfection efficiency” value turned out to be 17.8%.
Next, `CCCCCCCCCCCNc1nc(NCCN(CC)CC)nc(SCCCCCCCCC)n1` [Compound D7S9N11]: 36.8%; `CCCCCCCCCCCCNc1nc(NCCN(CC)CC)nc(SCCCCCCCCC)n1` [Compound D7S9N12]: 25.6%; `CCCCCCCCCCCCCNc1nc(NCCN(CC)CC)nc(SCCCCCCCCC)n1` [Compound D7S9N13]: 33.4%.
The same measure for `CCCCCCCCCCCCCCCNc1nc(NCCN(CC)CC)nc(SCCCCCCCCC)n1` [Compound D7S9N15]: 11.7%; for `CCCCCCCCCCCCCCCCNc1nc(NCCN(CC)CC)nc(SCCCCCCCCC)n1` [Compound D7S9N16]: 10.9%; for `CCCCCCCCCCCCCCCCCCNc1nc(NCCN(CC)CC)nc(SCCCCCCCCC)n1` [Compound D7S9N18]: 21.1%.
Take `CCCCCCCCCCSc1nc(NCCCCCC)nc(NCCN(CC)CC)n1` [Compound D7S10N6]: the “Absolute mRNA transfection efficiency” value was found to be 0.6%.
With `CCCCCCCCCCSc1nc(NCCCCCCC)nc(NCCN(CC)CC)n1` [Compound D7S10N7], the “Absolute mRNA transfection efficiency” value is 1.2%.
Next, `CCCCCCCCCCSc1nc(NCCCCCCCC)nc(NCCN(CC)CC)n1` [Compound D7S10N8]: 0.3%.
For the compound `CCCCCCCCCCSc1nc(NCCCCCCCCC)nc(NCCN(CC)CC)n1` [Compound D7S10N9], the “Absolute mRNA transfection efficiency” value came out at 1.6%.
Next, `CCCCCCCCCCCNc1nc(NCCN(CC)CC)nc(SCCCCCCCCCC)n1` [Compound D7S10N11]: 3.1%.
For `CCCCCCCCCCCCNc1nc(NCCN(CC)CC)nc(SCCCCCCCCCC)n1` [Compound D7S10N12], the “Absolute mRNA transfection efficiency” value turned out to be 10.6%.
`CCCCCCCCCCCCCNc1nc(NCCN(CC)CC)nc(SCCCCCCCCCC)n1` [Compound D7S10N13]: the “Absolute mRNA transfection efficiency” value is given as 13.7%.
Take `CCCCCCCCCCCCCCCNc1nc(NCCN(CC)CC)nc(SCCCCCCCCCC)n1` [Compound D7S10N15]: the “Absolute mRNA transfection efficiency” value stood at 2.0%.
Next, `CCCCCCCCCCCCCCCCNc1nc(NCCN(CC)CC)nc(SCCCCCCCCCC)n1` [Compound D7S10N16]: 19.3%; `CCCCCCCCCCCCCCCCCCNc1nc(NCCN(CC)CC)nc(SCCCCCCCCCC)n1` [Compound D7S10N18]: 25.9%.
Regarding `CCCCCCCCCCCSc1nc(NCCCCCC)nc(NCCN(CC)CC)n1` [Compound D7S11N6], the “Absolute mRNA transfection efficiency” value worked out at 4.3%.
In the case of `CCCCCCCCCCCSc1nc(NCCCCCCC)nc(NCCN(CC)CC)n1` [Compound D7S11N7], the “Absolute mRNA transfection efficiency” value worked out at 11.8%.
Next, `CCCCCCCCCCCSc1nc(NCCCCCCCC)nc(NCCN(CC)CC)n1` [Compound D7S11N8]: 13.4%; `CCCCCCCCCCCSc1nc(NCCCCCCCCC)nc(NCCN(CC)CC)n1` [Compound D7S11N9]: 5.0%.
As to `CCCCCCCCCCCNc1nc(NCCN(CC)CC)nc(SCCCCCCCCCCC)n1` [Compound D7S11N11], the “Absolute mRNA transfection efficiency” value turned out to be 35.0%.
The same measure for `CCCCCCCCCCCCNc1nc(NCCN(CC)CC)nc(SCCCCCCCCCCC)n1` [Compound D7S11N12]: 7.8%.
Next, `CCCCCCCCCCCCCNc1nc(NCCN(CC)CC)nc(SCCCCCCCCCCC)n1` [Compound D7S11N13]: 5.8%; `CCCCCCCCCCCCCCCNc1nc(NCCN(CC)CC)nc(SCCCCCCCCCCC)n1` [Compound D7S11N15]: 6.5%.
As to `CCCCCCCCCCCCCCCCNc1nc(NCCN(CC)CC)nc(SCCCCCCCCCCC)n1` [Compound D7S11N16], the “Absolute mRNA transfection efficiency” value came out at 4.4%.
As to `CCCCCCCCCCCCCCCCCCNc1nc(NCCN(CC)CC)nc(SCCCCCCCCCCC)n1` [Compound D7S11N18], the “Absolute mRNA transfection efficiency” value was 10.8%.
Turning to `CCCCCCCCCCCCSc1nc(NCCCCCC)nc(NCCN(CC)CC)n1` [Compound D7S12N6], the “Absolute mRNA transfection efficiency” value is recorded as 2.1%.
Take `CCCCCCCCCCCCSc1nc(NCCCCCCC)nc(NCCN(CC)CC)n1` [Compound D7S12N7]: the “Absolute mRNA transfection efficiency” value is given as 13.1%.
The same measure for `CCCCCCCCCCCCSc1nc(NCCCCCCCC)nc(NCCN(CC)CC)n1` [Compound D7S12N8]: 3.0%; for `CCCCCCCCCCCCSc1nc(NCCCCCCCCC)nc(NCCN(CC)CC)n1` [Compound D7S12N9]: 7.4%.
